Measurements as given in ChEMBL document CHEMBL1201862, “PubChem BioAssay data set” (2004).
Active and inactive are the calls of the source.

Tests used:
[1] = target: T1, DNA repair protein RAD52 homolog (Homo sapiens, UniProt P43351); type: functional, biochemical
T1 sequence (P43351 whole entry): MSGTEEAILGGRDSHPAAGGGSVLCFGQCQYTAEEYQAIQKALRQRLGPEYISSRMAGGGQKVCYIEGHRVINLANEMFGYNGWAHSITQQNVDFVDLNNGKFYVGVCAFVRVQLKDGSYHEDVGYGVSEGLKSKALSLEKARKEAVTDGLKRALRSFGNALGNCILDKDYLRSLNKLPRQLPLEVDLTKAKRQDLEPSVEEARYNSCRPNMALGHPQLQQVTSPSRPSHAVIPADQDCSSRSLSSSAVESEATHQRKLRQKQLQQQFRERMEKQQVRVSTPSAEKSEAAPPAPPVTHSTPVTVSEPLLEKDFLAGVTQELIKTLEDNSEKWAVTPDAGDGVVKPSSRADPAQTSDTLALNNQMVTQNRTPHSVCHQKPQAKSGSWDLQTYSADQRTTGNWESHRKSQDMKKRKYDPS

[2] = target: T2, Short transient receptor potential channel 4 (Mus musculus, UniProt Q9QUQ5); test: mouse TRPC4 channel activators, dose response, cell-based, HEK293 TRPC4/mu-opioid, Fluo-4 calcium (AID 434937); type: functional
T2 sequence (Q9QUQ5 whole entry): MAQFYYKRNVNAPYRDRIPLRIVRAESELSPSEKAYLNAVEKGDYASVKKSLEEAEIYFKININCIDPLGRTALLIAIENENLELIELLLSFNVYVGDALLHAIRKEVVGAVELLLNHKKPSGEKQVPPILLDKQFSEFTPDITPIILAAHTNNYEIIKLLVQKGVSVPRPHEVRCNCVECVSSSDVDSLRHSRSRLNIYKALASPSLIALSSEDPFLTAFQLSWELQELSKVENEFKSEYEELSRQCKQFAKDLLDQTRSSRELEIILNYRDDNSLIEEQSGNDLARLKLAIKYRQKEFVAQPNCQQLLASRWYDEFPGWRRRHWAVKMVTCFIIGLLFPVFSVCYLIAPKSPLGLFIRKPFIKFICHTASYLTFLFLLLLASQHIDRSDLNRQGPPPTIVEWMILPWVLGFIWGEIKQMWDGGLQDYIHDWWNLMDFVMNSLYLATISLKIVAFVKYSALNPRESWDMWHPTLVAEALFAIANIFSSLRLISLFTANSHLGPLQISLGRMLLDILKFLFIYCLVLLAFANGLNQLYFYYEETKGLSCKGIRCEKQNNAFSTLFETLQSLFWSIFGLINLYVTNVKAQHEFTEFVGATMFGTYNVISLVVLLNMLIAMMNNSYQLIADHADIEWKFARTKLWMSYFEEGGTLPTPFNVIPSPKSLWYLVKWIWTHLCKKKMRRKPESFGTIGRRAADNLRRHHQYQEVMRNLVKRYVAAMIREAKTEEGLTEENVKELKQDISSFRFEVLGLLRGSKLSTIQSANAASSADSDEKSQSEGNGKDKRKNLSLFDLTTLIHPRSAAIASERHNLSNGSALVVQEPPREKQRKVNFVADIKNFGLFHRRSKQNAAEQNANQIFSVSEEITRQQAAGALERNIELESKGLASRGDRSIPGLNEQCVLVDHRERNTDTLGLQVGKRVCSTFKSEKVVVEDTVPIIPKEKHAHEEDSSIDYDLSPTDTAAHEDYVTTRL

[3] = Luminescence Cell-Based Dose Retest to Confirm Inhibitors of Cancer Stem Cells. [Related pubchem assays (depositor defined):AID2717, AID2721]; type: functional; details: Homo sapiens
Vero = Vero cell cytotoxicity, cytotoxicity control for flavivirus capping enzyme inhibitors (AID 588742); type: functional; details: Chlorocebus sabaeus
Genome polyprotein = Genome polyprotein (dengue virus type 2, UniProt P29990); test: Dengue-2 NS5 methyltransferase inhibitors, primary screen, biochemical, confirmation dose response (AID 588689); type: functional
Genome polyprotein, sequence (P29990 2492-3391 limits assumed): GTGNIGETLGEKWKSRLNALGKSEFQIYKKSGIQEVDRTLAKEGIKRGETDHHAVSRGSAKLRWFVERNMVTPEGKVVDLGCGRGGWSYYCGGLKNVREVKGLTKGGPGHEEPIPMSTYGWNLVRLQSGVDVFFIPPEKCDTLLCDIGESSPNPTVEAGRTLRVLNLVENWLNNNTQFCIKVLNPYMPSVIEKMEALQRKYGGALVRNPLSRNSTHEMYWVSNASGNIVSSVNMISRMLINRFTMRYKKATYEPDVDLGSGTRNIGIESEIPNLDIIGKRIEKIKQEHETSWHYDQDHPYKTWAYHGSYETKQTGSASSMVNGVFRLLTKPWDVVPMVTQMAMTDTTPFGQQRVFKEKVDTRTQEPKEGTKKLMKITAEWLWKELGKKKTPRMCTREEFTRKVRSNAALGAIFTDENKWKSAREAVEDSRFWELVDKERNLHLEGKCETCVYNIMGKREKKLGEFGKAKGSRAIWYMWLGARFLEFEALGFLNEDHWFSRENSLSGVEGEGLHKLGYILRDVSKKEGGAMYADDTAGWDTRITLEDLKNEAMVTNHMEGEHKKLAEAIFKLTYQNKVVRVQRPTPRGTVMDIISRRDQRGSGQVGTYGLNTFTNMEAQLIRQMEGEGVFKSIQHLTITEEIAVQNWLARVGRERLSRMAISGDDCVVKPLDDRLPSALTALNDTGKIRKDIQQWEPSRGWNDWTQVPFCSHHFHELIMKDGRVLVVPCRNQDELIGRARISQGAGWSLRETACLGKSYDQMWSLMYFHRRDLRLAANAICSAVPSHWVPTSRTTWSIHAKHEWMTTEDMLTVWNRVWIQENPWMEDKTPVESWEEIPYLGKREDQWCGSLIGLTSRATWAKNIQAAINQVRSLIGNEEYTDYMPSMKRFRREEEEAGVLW

[4] = system: Streptococcus sp. 'group A'; test: growth inhibition of control SK(-) GAS strain, dose response, counter-screen for streptokinase expression inhibitor project, luminescence, kanamycin, BacTiterGlo, confirmation (AID 1900); type: functional, organism-based
Streptococcus = test: Group A Streptococcus viability loss, dose response, counter-screen for streptokinase expression inhibitor project, luminescence, BacTiterGlo (AID 1915); type: functional, organism-based;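 further: potency for reduction of bacterial viability or growth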
[5] = target: T3, Replicative DNA helicase DnaB (Mycobacterium tuberculosis, UniProt P9WMR3); test: DnaB intein splicing inhibitors, dose response, biochemical, cell-free fluorescence (AID 449749); type: functional
T3 sequence (P9WMR3 whole entry): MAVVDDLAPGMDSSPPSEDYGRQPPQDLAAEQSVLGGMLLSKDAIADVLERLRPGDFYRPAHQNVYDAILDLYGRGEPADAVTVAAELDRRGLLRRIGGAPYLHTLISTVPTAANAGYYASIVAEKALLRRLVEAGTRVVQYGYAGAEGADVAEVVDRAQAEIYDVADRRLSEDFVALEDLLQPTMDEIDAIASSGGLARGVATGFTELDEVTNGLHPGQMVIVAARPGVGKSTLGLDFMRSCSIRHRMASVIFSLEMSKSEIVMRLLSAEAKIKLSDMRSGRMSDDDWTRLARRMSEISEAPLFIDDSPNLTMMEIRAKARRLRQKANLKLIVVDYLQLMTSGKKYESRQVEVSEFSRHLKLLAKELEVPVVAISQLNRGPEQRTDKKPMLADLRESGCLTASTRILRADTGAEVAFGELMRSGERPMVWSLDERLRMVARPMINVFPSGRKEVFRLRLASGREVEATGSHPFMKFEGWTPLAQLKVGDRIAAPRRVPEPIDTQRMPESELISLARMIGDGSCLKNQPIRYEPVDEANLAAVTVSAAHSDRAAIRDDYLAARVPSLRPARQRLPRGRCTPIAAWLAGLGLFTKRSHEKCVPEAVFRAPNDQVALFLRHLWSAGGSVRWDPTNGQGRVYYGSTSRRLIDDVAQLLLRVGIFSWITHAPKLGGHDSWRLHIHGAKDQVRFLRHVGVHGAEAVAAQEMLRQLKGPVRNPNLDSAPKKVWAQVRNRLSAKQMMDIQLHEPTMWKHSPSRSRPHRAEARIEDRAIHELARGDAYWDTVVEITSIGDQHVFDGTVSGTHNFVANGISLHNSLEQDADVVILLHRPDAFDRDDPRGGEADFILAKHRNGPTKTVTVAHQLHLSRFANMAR

Protein RecA = target: T4, Protein RecA (Mycobacterium tuberculosis, UniProt P9WHJ3); test: Fluorescence Cell-Free Homogeneous Dose Retest to Identify Inhibitors of RecA-Intein Splicing Activity. [Related pubchem assays (depositor defined):AID2097, AID2223, AID489010, AID492950]; type: functional
T4 sequence (P9WHJ3 whole entry): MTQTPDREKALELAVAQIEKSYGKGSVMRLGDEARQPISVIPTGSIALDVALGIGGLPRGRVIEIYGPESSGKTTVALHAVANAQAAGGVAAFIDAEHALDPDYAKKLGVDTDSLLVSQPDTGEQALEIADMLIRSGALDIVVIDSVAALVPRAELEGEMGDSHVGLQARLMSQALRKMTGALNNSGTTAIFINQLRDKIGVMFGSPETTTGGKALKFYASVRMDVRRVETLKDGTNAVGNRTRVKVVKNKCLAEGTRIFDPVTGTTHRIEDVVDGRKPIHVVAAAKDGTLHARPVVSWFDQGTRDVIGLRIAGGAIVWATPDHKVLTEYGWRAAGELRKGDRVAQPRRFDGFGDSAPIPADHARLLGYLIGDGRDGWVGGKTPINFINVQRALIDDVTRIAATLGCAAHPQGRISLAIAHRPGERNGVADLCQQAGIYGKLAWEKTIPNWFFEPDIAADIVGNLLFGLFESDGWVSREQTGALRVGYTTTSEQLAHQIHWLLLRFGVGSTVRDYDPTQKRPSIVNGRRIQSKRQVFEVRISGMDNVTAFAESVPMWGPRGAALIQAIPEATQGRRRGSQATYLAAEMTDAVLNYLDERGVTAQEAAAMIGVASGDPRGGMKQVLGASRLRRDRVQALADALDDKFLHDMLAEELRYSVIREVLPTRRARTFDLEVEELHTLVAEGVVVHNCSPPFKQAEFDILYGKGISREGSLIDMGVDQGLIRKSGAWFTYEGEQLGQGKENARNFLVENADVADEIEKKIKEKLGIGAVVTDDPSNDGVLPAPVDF

[6] = Shn3 3'UTR reporter inhibitors, dose response, cell-based, Clone20 osteoblasts, firefly luciferase, cherry-picked (AID 624132); type: functional;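 further: firefly luciferase luminescence from reporter carrying the Shn3 3'UTR in osteoblasts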
[7] = control 3'UTR Renilla luciferase suppression, dose response, counter-screen for Shn3 inhibitor project, cell-based, Clone20-Shn3RL, cherry-picked (AID 624133); type: functional
[8] = target: Voltage-dependent T-type calcium channel subunit alpha-1H (Homo sapiens, UniProt O95180); type: functional;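 further: channel activity triggered by adding a high calcium stimulation buffer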
Voltage-dependent T-type calcium channel subunit alpha-1H, sequence (O95180 whole entry): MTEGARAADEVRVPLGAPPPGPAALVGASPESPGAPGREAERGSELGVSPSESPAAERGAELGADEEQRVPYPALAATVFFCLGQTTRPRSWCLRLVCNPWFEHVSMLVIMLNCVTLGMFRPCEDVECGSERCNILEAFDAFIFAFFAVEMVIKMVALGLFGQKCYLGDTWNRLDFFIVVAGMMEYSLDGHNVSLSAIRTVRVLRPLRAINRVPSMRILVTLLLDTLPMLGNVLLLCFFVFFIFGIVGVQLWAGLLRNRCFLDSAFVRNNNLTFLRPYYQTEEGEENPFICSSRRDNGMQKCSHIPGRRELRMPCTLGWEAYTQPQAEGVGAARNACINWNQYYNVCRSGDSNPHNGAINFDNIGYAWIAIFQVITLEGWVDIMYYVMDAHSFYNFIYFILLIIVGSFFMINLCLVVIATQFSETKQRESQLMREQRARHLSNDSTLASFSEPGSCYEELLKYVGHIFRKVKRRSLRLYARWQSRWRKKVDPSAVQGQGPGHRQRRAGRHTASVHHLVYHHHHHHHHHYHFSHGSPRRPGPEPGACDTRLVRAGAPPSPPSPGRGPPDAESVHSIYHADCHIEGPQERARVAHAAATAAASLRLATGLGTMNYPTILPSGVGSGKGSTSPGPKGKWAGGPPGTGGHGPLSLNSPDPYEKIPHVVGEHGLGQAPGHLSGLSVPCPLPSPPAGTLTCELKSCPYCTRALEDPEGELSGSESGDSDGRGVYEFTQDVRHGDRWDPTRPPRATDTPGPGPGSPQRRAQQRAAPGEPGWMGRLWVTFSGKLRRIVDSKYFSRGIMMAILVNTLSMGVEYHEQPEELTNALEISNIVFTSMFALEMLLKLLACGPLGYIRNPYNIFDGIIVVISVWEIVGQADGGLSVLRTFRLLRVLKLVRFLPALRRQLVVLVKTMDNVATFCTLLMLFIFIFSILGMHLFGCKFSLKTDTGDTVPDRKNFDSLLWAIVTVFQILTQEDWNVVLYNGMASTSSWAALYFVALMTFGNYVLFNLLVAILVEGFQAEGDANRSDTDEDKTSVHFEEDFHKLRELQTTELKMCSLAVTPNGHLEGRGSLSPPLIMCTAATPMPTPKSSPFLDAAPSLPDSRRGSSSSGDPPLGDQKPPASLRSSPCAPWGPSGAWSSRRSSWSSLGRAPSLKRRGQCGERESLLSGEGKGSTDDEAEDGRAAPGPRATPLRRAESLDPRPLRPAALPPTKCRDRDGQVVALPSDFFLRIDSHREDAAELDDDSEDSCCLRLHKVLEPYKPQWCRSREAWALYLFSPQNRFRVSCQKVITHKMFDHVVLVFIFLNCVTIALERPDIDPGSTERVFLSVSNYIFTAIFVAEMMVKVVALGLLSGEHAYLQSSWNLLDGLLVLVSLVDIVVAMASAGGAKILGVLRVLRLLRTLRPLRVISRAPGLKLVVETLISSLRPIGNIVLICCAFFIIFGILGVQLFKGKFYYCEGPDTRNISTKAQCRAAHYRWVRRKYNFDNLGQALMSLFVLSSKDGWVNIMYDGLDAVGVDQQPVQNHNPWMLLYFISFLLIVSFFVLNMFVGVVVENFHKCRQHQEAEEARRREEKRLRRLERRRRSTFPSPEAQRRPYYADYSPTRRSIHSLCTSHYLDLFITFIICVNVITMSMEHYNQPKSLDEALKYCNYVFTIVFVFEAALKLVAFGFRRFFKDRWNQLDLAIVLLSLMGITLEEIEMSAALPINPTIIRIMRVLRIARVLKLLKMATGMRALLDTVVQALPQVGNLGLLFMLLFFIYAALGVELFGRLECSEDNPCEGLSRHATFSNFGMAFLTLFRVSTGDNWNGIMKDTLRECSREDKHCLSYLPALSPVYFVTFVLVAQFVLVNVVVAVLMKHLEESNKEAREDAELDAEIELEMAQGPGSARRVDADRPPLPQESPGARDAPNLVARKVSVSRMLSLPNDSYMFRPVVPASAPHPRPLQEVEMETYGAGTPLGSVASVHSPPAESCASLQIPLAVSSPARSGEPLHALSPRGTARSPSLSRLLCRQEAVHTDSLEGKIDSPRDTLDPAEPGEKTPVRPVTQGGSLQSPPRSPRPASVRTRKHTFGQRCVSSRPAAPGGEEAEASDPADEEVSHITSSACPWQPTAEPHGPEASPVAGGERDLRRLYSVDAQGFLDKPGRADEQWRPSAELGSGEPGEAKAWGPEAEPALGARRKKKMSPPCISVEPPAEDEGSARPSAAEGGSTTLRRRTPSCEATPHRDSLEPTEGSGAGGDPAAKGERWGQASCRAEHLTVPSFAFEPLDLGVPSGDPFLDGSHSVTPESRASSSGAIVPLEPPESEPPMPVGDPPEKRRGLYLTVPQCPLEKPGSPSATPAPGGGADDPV

Cytochrome P450 2C19 = Cytochrome P450 2C19 (Homo sapiens, UniProt P33261); test: Cytochrome panel assay with activity outcomes. Panel member name: p450-cyp2c19 Compounds with AC50 equal or less than 10 uM are considered active; type: functional; details: read-out: AC50
Cytochrome P450 2C19, sequence (P33261 whole entry): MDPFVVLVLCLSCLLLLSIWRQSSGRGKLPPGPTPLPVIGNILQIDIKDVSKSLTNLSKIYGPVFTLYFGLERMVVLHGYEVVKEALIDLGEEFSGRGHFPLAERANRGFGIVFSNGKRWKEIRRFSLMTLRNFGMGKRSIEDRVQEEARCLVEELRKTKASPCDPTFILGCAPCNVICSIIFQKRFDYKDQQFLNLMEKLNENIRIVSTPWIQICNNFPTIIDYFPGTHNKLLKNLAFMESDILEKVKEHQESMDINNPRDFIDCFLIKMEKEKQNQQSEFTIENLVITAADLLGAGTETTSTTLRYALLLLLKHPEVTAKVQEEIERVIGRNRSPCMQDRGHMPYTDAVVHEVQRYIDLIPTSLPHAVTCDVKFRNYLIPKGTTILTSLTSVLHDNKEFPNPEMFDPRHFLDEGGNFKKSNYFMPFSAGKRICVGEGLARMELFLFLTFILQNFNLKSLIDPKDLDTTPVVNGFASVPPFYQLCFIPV

Cytochrome P450 1A2 = target: T5, Cytochrome P450 1A2 (Homo sapiens, UniProt P05177);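 further: PubChem cytochrome P450 panel assay, CYP1A2 panel member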
T5 sequence (P05177 whole entry): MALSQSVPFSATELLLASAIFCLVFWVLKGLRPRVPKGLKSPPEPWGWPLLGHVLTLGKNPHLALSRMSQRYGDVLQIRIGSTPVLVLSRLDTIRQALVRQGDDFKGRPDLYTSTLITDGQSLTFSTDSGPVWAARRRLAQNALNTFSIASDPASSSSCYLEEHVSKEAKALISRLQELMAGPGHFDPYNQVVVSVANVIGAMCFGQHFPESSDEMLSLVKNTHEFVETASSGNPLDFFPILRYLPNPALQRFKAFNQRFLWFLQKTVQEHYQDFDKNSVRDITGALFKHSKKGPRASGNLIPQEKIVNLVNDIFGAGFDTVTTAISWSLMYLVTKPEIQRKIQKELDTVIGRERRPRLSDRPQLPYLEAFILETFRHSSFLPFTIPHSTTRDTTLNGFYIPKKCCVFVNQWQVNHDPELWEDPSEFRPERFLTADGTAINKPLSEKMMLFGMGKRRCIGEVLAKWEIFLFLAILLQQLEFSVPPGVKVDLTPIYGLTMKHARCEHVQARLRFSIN

Cytochrome P450 2C9 = Cytochrome P450 2C9 (Homo sapiens, UniProt P11712)
Cytochrome P450 2C9, sequence (P11712 whole entry): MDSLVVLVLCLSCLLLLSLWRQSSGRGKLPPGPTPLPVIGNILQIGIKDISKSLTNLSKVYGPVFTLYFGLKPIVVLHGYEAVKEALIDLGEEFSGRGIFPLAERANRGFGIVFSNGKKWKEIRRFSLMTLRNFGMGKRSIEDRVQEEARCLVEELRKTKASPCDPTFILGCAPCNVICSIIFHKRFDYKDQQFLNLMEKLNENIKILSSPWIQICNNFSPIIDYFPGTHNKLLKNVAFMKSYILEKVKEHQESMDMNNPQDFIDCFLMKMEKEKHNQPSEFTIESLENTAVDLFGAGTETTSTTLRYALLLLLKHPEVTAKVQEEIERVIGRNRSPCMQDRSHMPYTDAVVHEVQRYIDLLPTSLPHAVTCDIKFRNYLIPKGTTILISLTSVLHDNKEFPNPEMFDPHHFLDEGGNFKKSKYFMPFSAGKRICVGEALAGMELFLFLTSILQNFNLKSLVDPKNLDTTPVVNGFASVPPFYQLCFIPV

[9] = HeLa cell cytotoxicity, dose response, cytotoxicity control for MgcRacGAP inhibitor project (AID 624300); type: functional
[10] = target: T6, Rac GTPase-activating protein 1 (Homo sapiens, UniProt Q9H0H5); test: MgcRacGAP GTPase-activating activity inhibitors, confirmation, biochemical, ADP Hunter fluorescence, primary and confirmatory (AID 624330); type: functional
T6 sequence (Q9H0H5 whole entry): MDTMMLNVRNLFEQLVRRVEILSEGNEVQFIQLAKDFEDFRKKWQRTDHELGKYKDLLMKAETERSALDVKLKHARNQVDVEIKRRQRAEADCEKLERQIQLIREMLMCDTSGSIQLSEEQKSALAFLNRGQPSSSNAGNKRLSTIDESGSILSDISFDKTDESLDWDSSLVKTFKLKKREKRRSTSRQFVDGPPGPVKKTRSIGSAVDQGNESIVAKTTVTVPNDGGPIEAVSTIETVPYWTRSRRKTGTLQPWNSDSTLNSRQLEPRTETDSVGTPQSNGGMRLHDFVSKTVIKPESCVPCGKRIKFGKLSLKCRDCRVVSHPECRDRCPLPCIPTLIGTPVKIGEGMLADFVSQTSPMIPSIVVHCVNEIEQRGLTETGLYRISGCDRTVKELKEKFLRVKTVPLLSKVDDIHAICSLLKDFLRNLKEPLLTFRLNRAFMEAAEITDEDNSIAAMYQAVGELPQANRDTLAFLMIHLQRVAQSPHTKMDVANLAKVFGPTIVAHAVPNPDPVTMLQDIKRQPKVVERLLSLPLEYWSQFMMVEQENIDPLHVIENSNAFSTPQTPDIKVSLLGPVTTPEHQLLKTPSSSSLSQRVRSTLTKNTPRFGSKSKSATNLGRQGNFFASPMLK

[11] = P. falciparum 3D7-ScDHODH growth inhibitors, dose response, SYBR Green, dry powder samples (AID 1159570); type: functional, cell-based;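 further: parasite growth measured after 72 hours of compound exposure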
[12] = P. falciparum Dd2 growth inhibitors, dose response, SYBR Green, cherry-picked samples (AID 1159567); type: functional, cell-based
[13] = P. falciparum Dd2 growth inhibitors, dose response, SYBR Green, dry powder samples (AID 1159566); type: functional, cell-based;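 further: potency for growth inhibition with lower SYBR green DNA signal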
[14] = P. falciparum ATP4 D1247Y mutant growth inhibitors, dose response, NITD609-resistant line, SYBR Green, dry powder (AID 1159571); type: functional, cell-based;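 further: parasites synchronized at ring stage by sorbitol before testing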

O=C(NCCCCCCCN1CCCCCCC1)C(C1CCCCC1)C1CCCCC1
AC50 [1]: 8.88 µM (active)

O=C(c1cccs1)N1CCN(c2ncc(Br)cn2)CC1
EC50 [2]: 0.668 µM (active)

Cc1[nH]n(-c2ncc(-c3ccc(Cl)cc3)s2)c(=O)c1C(c1ccc(Cl)cc1)C(C#N)C#N (stereo unspecified)
AC50 [3]: 2.97 µM (active)
CC50 (Vero): > 40 µM (active)
IC50 (Genome polyprotein): 23 µM (active)

CN(C)CCNC(=O)c1ccc(-c2cn3c(-c4ccc(Oc5ccccc5)cc4)cnc3cn2)cc1
AC50 [1]: 5.06 µM (active)

CCCc1ccc(OCC(=O)NNC(=S)NC(=O)c2ccco2)cc1
EC50 [4]: 0.069 µM (active)
EC50 (Streptococcus): 1.39 µM (active)
EC50 [2]: 6.68 µM (active)

Cc1cccc(CS(=O)(=O)c2ncc(Cl)c(C(=O)Nc3nnc(C(C)C)s3)n2)c1
AC50 [5]: 1.2 µM (active)
CC50 (Vero): 25.6 µM (active)
EC50 (Protein RecA): 0.312 µM (active)
IC50 (Genome polyprotein): 94.3 µM (active)
AC50 [6]: 1.62 µM (active)
AC50 [7]: 4.36 µM (active)

Cc1ccc(NC(S)=NCCc2c[nH]cn2)cc1C
EC50 [2]: 0.267 µM (active)

Fc1ccc(N2CCN(c3ccc4c(C(F)(F)F)cc(C(F)(F)F)nc4n3)CC2)cc1
EC50 [8]: 4.13 µM (active)
AC50 (Cytochrome P450 2C19): 22.4 µM (inconclusive)
AC50 (Cytochrome P450 1A2): 5.01 µM (inconclusive)
AC50 (Cytochrome P450 2C9): inconclusive

Oc1ccc(-c2csc(Nc3ccccn3)n2)c(O)c1
AC50 [3]: 1.74 µM (active)
CC50 [9]: 100 µM (active)
IC50 [10]: 59.5 µM (active)

C[C@H]1CN([C@@H](C)CO)C(=O)c2cc(NC(=O)Nc3ccc(C(F)(F)F)cc3)ccc2O[C@@H]1CN(C)C(=O)Nc1cccc2ccccc12
AC50 [11]: 1.42 µM (active)
AC50 [12]: 2.41 µM (active)
AC50 [13]: 1.37 µM (active)
AC50 [14]: 1.56 µM (active)

Cc1ccc(C)c(NC(S)=NCCc2c[nH]cn2)c1
EC50 [2]: 2.66 µM (active)

COc1ccc(/N=c2\oc3c(OC)cccc3cc2C(=O)NCc2ccco2)c(OC)c1
CC50 (Vero): > 40 µM (active)
IC50 (Genome polyprotein): 40.8 µM (active)

CCOc1cccc2sc(N(CCCN(C)C)C(=O)c3ccc(C(=O)c4ccccc4)cc3)nc12
AC50 [1]: 17.3 µM (active)
